What was measured:
HEK293sieSTAT3(wt) [1] = test: drug sensitivity score (DSS), viability CellTiter-Glo (DSS (dimensionless)); higher = more growth inhibition; extreme values may be limits of the assay; settings: 72 h; STAT3 variant: wild type
In short: (§1)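 Compounds were acoustically pre-plated in 384-well plates at 5 concentrations spaced by 10-fold dilutions, and HEK293 cells overexpressing wild-type or mutant STAT3 and carrying a STAT3-dependent luciferase reporter were added at 100,000 cells/ml in 20 μl. After 72 hours at 37°C and 5% CO2, the plates were read on a PHERAstar FS for CellTox Green fluorescence (485/520 nm) and then CellTiter-Glo luminescence. A drug sensitivity score derived from dose-response curve area was calculated in Breeze from values normalised to negative and positive control wells.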

HEK293sieSTAT3(Y640F) [2] = test: as above; settings: 72 h; STAT3 variant: Y640F (constitutively active)
In short: as §1

HEK293sieSTAT3(wt) [3] = test: drug sensitivity score (DSS), cytotoxicity CellTox Green (DSS (dimensionless)); higher = more cytotoxic; extreme values may be limits of the assay; settings: 72 h; STAT3 variant: wild type
In short: as §1

HEK293sieSTAT3(Y640F) [4] = test: as above; settings: 72 h; STAT3 variant: Y640F (constitutively active)
In short: as §1

SMILES | drug sensitivity score (HEK293sieSTAT3(wt) [1]) | drug sensitivity score (HEK293sieSTAT3(Y640F) [2]) | drug sensitivity score (HEK293sieSTAT3(wt) [3]) | drug sensitivity score (HEK293sieSTAT3(Y640F) [4])
CN(C)C[C@@H]1CCn2cc(c3ccccc32)C2=C(C(=O)NC2=O)c2cn(c3ccccc23)CCO1 [Ruboxistaurin] (top concentration tested 10000 nM) | 8.97 | 9 | 6.85 | 6.6
CNCc1ccc(-c2[nH]c3cc(F)cc4c3c2CCNC4=O)cc1 [Rucaparib] (top concentration tested 10000 nM) | 4.23 | 4.37 | 0.89 | 0
N#CC[C@H](C1CCCC1)n1cc(-c2ncnc3[nH]ccc23)cn1 [Ruxolitinib] (top concentration tested 10000 nM) | 3.2 | 2.89 | 0.1 | 0.39
CC(C)N(CCCNC(=O)Nc1ccc(C(C)(C)C)cc1)C[C@H]1O[C@@H](n2cc(Br)c3c(N)ncnc32)[C@H](O)[C@@H]1O [SGC0946] (top concentration tested 10000 nM) | 7.15 | 3.05 | 6.85 | 0.07
COc1ccc(CCc2nc3cc(-c4c(C)noc4C)ccc3n2C[C@H](C)N2CCOCC2)cc1Cl [SGC-CBP30] (top concentration tested 25000 nM) | 4.3 | 3.16 | 4.24 | 0.32
CN1CCC(CNc2ccc3ncc(-c4cccc(OC(F)(F)F)c4)n3n2)CC1 [SGI-1776] (top concentration tested 10000 nM) | 9.07 | 6.8 | 7.56 | 4.99
Cn1cc(-c2ccc3nnc(Sc4ccc5ncccc5c4)n3n2)cn1 [SGX-523] (top concentration tested 5000 nM) | 0.49 | 0 | 0 | 0.89
CN(CC(=O)N(Cc1ccc(C2CCCCC2)cc1)c1ccc(C(=O)O)cc1)S(=O)(=O)c1c(F)c(F)c(F)c(F)c1F [SH-4-54] (top concentration tested 25000 nM) | 10.8 | 10.1 | 9.04 | 5.59
CC(C)NC(=O)COc1cccc(-c2nc(Nc3ccc4[nH]ncc4c3)c3ccccc3n2)c1 [SLx-2119] (top concentration tested 5000 nM) | 5.8 | 10.7 | 0.57 | 0
CCc1c2c(nc3ccc(O)cc13)-c1cc3c(c(=O)n1C2)COC(=O)[C@]3(O)CC [SN-38] (top concentration tested 10000 nM) | 40.7 | 42 | 22.4 | 14.3
CC(C)(C)c1cnc(CSc2cnc(NC(=O)C3CCNCC3)s2)o1 [SNS-032] (top concentration tested 10000 nM) | 26.7 | 25.3 | 22.6 | 10.3
O=C(Nc1cccc(Cl)c1)Nc1ncc(CCNc2ncnc3ccsc23)s1 [SNS-314] (top concentration tested 1000 nM) | 5 | 5.69 | 2.17 | 0
Cc1cc2c(C(=O)NC[C@H](C)c3ccccc3)c(O)c(O)cc2c(O)c1-c1c(C)cc2c(C(=O)NC[C@H](C)c3ccccc3)c(O)c(O)cc2c1O [Sabutoclax] (top concentration tested 25000 nM) | 27.8 | 26.4 | 9.82 | 12.2
CNC(=O)CN1CCC(Oc2cc3c(Nc4cccc(Cl)c4F)ncnc3cc2OC)CC1 [Sapitinib] (top concentration tested 1000 nM) | 0 | 1.89 | 0 | 0
CN1CCN(CCOc2cc(OC3CCOCC3)c3c(Nc4c(Cl)ccc5c4OCO5)ncnc3c2)CC1 [Saracatinib] (top concentration tested 10000 nM) | 6.87 | 7.28 | 9.4 | 1.77
CC[C@H](CO)Nc1nc(NCc2ccccc2)c2ncn(C(C)C)c2n1 [Seliciclib] (top concentration tested 10000 nM) | 6.69 | 6.02 | 6.62 | 2.48
O=C(/C=C\n1cnc(-c2cc(C(F)(F)F)cc(C(F)(F)F)c2)n1)NNc1cnccn1 [Selinexor] (top concentration tested 10000 nM) | 30.8 | 26.9 | 26.4 | 14.5
Cn1cnc2c(F)c(Nc3ccc(Br)cc3Cl)c(C(=O)NOCCO)cc21 [Selumetinib] (top concentration tested 10000 nM) | 0.99 | 1.4 | 0 | 0.68
Cc1cc(C)c(/C=C2\C(=O)Nc3ccccc32)[nH]1 [Semaxanib] (top concentration tested 10000 nM) | 2.08 | 0 | 8.57 | 3.22
c1ccc2c(CCNc3ccc(Nc4ccncc4)cc3)c[nH]c2c1 [Serdemetan] (top concentration tested 10000 nM) | 7.89 | 5.06 | 1.74 | 0
O=C(O)c1ccc2c(c1)nc(Nc1cccc(Cl)c1)c1ccncc12 [Silmitasertib] (top concentration tested 10000 nM) | 7.79 | 6.52 | 1.84 | 0
CO[C@H]1C[C@@H]2CC[C@@H](C)[C@@](O)(O2)C(=O)C(=O)N2CCCC[C@H]2C(=O)O[C@H]([C@H](C)C[C@@H]2CC[C@@H](O)[C@H](OC)C2)CC(=O)[C@H](C)/C=C(\C)[C@@H](O)[C@@H](OC)C(=O)[C@H](C)C[C@H](C)/C=C/C=C/C=C/1C [Sirolimus] (top concentration tested 100 nM) | 9.09 | 7 | 0 | 0

SMILES | drug sensitivity score (HEK293sieSTAT3(wt) [1]) | drug sensitivity score (HEK293sieSTAT3(Y640F) [2]) | drug sensitivity score (HEK293sieSTAT3(wt) [3]) | drug sensitivity score (HEK293sieSTAT3(Y640F) [4])
Cc1c(C(=O)Nc2ccc(N3C[C@@H](C)O[C@@H](C)C3)nc2)cccc1-c1ccc(OC(F)(F)F)cc1 [Sonidegib] (top concentration tested 10000 nM) | 3.16 | 1.71 | 0 | 0
C=CCN(/C=C1/C(=O)O[C@H](COC)[C@@]2(C)C1=C(O)C(=O)C1=C2[C@H](OC(C)=O)C[C@]2(C)C(=O)CC[C@@H]12)CC=C [Sonolisib] (top concentration tested 10000 nM) | 0.33 | 1.67 | 0 | 2.34
CNC(=O)c1cc(Oc2ccc(NC(=O)Nc3ccc(Cl)c(C(F)(F)F)c3)cc2)ccn1 [Sorafenib] (top concentration tested 1000 nM) | 0.09 | 0 | 0 | 1.07
CN1CCN(c2nc(C3=C(c4c[nH]c5ccccc45)C(=O)NC3=O)c3ccccc3n2)CC1 [Sotrastaurin] (top concentration tested 10000 nM) | 5.78 | 3.63 | 0.69 | 3
C=CC(=O)Nc1cccc(Nc2nc(Nc3ccc(OCCOC)cc3)ncc2F)c1 [Spebrutinib] (top concentration tested 1000 nM) | 0 | 2.4 | 0 | 0
O=[N+]([O-])c1ccc2c(c1)S(=O)(=O)C=C2 [Stattic] (top concentration tested 50000 nM) | 17.2 | 17.2 | 18.9 | 16.9
CC(C)n1cnc2c(NCCc3ccc(O)cc3)nc(-c3csc4ccccc34)nc21 [StemRegenin 1] (top concentration tested 10000 nM) | 5.04 | 3.04 | 5.48 | 0.52
CN(N=O)C(=O)N[C@@H](C=O)[C@@H](O)[C@H](O)[C@H](O)CO [Streptozocin] (top concentration tested 10000 nM) | 1.93 | 0 | 0 | 0
CCN(CC)CCNC(=O)c1c(C)[nH]c(/C=C2\C(=O)Nc3ccc(F)cc32)c1C [Sunitinib] (top concentration tested 1000 nM) | 0 | 0.02 | 0 | 0
CC(C)(O)CC(=O)NCCn1ccc2ncnc(Nc3ccc(Oc4cccc(C(F)(F)F)c4)c(Cl)c3)c21 [TAK-285] (top concentration tested 2500 nM) | 0 | 0 | 0 | 0
N#Cc1c(Oc2ccc(F)c(NC(=O)Cc3cccc(C(F)(F)F)c3)c2)ccc2nc(NC(=O)C3CC3)sc12 [TAK-632] (top concentration tested 10000 nM) | 8.51 | 11.1 | 0 | 0
CCc1nc(-c2cccc(C)c2)c(-c2ccnc(NC(=O)c3ccccc3)c2)s1 [TAK-715] (top concentration tested 10000 nM) | 4.5 | 4.68 | 0 | 0
Cn1c(=O)c(F)c(Nc2ccc(I)cc2F)c2c(=O)n(C[C@@H](O)CO)cnc21 [TAK-733] (top concentration tested 1000 nM) | 0 | 1.47 | 0 | 0
CCS(=O)(=O)c1cccc(-c2cc(C(=O)NC3CCN(C)CC3)c(C)c3[nH]c4ncc(C)cc4c23)c1 [TAK-901] (top concentration tested 1000 nM) | 4.52 | 4.54 | 2.83 | 0
COc1cc(C(=O)NC2CCN(C)CC2)c(F)cc1Nc1ncc2c(n1)N(C1CCCC1)CC(F)(F)C(=O)N2C [TAK-960] (top concentration tested 2500 nM) | 0 | 0 | 0 | 0.89
Cc1cccc(-c2[nH]c(CNc3ccccc3F)nc2-c2ccc3ncnn3c2)n1 [TEW-7197] (top concentration tested 2500 nM) | 1.04 | 2.53 | 0.27 | 0
Nc1nc(N)c2nc(-c3cccc(O)c3)c(-c3cccc(O)c3)nc2n1 [TG100-115] (top concentration tested 10000 nM) | 0 | 0.15 | 0 | 0
Cc1cc(C(C)Nc2ccccc2)c2nc(N3CCOCC3)cc(=O)n2c1 (stereo unspecified) [TGX-221] (top concentration tested 10000 nM) | 0 | 0.57 | 0 | 0
Nc1nc(NC2CC2)cc(-c2cccc(Cl)c2Cl)n1 [TH588] (top concentration tested 25000 nM) | 6.38 | 3.43 | 5.04 | 2.04
NC(=O)Nc1sc(-c2ccc(F)cc2)cc1C(N)=O [TPCA-1] (top concentration tested 25000 nM) | 7.61 | 5.84 | 5.56 | 0.96
Clc1ccccc1C(c1ccccc1)(c1ccccc1)n1cccn1 [TRAM-34] (top concentration tested 1000 nM) | 1.55 | 1.41 | 0 | 0
CC(=O)Nc1ccc(C(=O)Nc2ccccc2N)cc1 [Tacedinaline] (top concentration tested 1000 nM) | 2.27 | 4.27 | 0 | 0
